Reference: patent US20090069320A1, “Substituted 4-Amino-Quinazoline Compounds with Metabotropic Glutamate Receptor Regulating Activity and Uses Thereof” (Gruenenthal GmbH, priority 2006, published 2009)

Target: T1, mGluR5 receptor (Sus scrofa, UniProt I3LUI7)
T1 construct: 450 μg of protein from brain homogenate with 5 nM ^3[H]-MPEP; from tissue; host or cells: pig brain halves without medulla, cerebellum and pons
Assay: [3H]-MPEP mGluR5 receptor binding assay (pig brain homogenate)
Conditions: 5 nM [3H]-MPEP, read-out: IC50 mGluR5 Receptor (pig) [^3H]-MPEP Bond
Procedure, shortened: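 Radioligand displacement of 5 nM [3H]-MPEP from pig brain homogenate (450 μg protein; medulla, cerebellum and pons removed) in 20 mM Hepes pH 8.0. Compounds were tested at 10 μM, incubated 60 min at room temperature, then filtered and counted by scintillation. Non-specific binding was defined with 10 μM MPEP.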

T1 sequence (I3LUI7 19-1212): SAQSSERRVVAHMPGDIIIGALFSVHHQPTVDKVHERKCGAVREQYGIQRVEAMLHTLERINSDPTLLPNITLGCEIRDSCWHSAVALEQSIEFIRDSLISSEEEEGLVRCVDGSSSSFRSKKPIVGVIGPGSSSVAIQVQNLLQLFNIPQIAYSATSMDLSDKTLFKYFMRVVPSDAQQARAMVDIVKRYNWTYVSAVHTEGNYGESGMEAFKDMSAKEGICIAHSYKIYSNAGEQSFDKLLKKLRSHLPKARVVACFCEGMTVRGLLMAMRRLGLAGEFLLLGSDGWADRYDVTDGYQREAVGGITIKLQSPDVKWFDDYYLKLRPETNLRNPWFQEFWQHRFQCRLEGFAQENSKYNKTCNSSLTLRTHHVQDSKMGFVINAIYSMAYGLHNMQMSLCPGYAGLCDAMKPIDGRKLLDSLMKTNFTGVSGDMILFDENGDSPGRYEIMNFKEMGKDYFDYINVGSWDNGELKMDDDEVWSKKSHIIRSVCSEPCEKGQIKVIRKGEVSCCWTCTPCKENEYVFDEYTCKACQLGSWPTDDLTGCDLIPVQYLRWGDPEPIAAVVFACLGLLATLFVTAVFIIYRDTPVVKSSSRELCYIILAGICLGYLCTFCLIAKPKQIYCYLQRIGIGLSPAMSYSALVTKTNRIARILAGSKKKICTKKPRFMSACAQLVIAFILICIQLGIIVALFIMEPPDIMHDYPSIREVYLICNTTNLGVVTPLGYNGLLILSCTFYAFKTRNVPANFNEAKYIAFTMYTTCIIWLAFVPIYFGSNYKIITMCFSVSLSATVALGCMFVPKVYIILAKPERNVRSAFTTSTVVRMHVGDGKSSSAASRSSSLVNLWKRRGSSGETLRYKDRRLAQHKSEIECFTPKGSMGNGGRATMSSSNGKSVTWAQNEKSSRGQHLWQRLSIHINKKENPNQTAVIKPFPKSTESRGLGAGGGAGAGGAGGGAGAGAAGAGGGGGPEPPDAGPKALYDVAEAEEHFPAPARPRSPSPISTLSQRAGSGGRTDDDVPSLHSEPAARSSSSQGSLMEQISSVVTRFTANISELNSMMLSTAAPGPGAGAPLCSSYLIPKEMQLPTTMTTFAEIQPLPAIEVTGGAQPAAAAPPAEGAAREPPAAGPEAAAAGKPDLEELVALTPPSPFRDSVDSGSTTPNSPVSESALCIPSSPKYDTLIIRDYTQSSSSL

| SMILES | IC50 [nM] |
| --- | --- |
| O=C(c1ccccn1)N(Cc1cccc(-c2cc(F)c3ncnc(NC4CC4)c3c2)c1)C1CC1 [Example 708, N-cyclopropyl-N-(3-(4-(cyclopropylamino)-8-fluoroquinazolin-6-yl)benzyl)picolinamide] | 130 |
| CC(=O)N(Cc1cccc(-c2cc3c(NC4CC4)ncnc3cc2C)c1)C1CC1 [Example 710, N-cyclopropyl-N-(3-(4-(cyclopropylamino)-7-methylquinazolin-6-yl)benzyl)acetamide] | 110 |
| CC(=O)N(Cc1cccc(-c2cc(F)c3ncnc(NC4CC4)c3c2)c1)C1CC1 [Example 716, N-cyclopropyl-N-(3-(4-(cyclopropylamino)-8-fluoroquinazolin-6-yl)benzyl)acetamide] | 120 |

Same assay, conditions: 10 μM compound, 5 nM [3H]-MPEP

| SMILES | % Inhibition of mGluR5 Receptor (pig) [^3H]-MPEP Bond at 10 μM [%] |
| --- | --- |
| COc1ccc(S(=O)(=O)N(Cc2cccc(-c3cc(F)c4ncnc(NC5CC5)c4c3)c2)C2CC2)cc1 [Example 694, N-cyclopropyl-N-(3-(4-(cyclopropylamino)-8-fluoroquinazolin-6-yl)benzyl)-4-methoxybenzole sulfonamide] | 82 |
| Cc1cc2ncnc(NC3CC3)c2cc1-c1cccc(CN(C2CC2)S(=O)(=O)c2ccccc2)c1 [Example 721, N-cyclopropyl-N-(3-(4-(cyclopropylamino)-7-methylquinazolin-6-yl)benzyl)benzole sulfonamide] | 87 |
| O=S(=O)(c1ccccc1)N(Cc1cc(-c2ccc3ncnc(NC4CC4)c3c2)ccn1)C1CC1 [Example 731, N-cyclopropyl-N-((4-(4-(cyclopropylamino)quinazolin-6-yl)pyridin-2-yl)methyl)benzole sulfonamide] | 86 |

Same assay, conditions: 10 μM compound, 5 nM [3H]-MPEP, read-out: % Inhibition of mGluR5 Receptor (pig) [^3H]-MPEP Bond at 10 μM

| SMILES | inhibition at 10 µM [%] |
| --- | --- |
| Cc1cc2ncnc(NC3CC3)c2cc1-c1cccc(CN(C(=O)c2ccco2)C2CC2)c1 [Example 691, N-cyclopropyl-N-(3-(4-(cyclopropylamino)-7-methylquinazolin-6-yl)benzyl)furan-2-carboxamide] | 83 |
| Cc1cc2ncnc(NC3CC3)c2cc1-c1cccc(CN(C(=O)c2cc(Cl)cc(Cl)c2)C2CC2)c1 [Example 692, 3,5-dichloro-N-cyclopropyl-N-(3-(4-(cyclopropylamino)-7-methylquinazolin-6-yl)benzyl)benzamide] | 67 |
| O=C(c1ccccc1)N(Cc1cccc(-c2cc(F)c3ncnc(NC4CC4)c3c2)c1)C1CC1 [Example 693, N-cyclopropyl-N-(3-(4-(cyclopropylamino)-8-fluoroquinazolin-6-yl)benzyl)benzamide] | 102 |
| Cc1cc2ncnc(NC3CC3)c2cc1-c1cccc(CN(C2CC2)S(C)(=O)=O)c1 [Example 697, N-cyclopropyl-N-(3-(4-(cyclopropylamino)-7-methylquinazolin-6-yl)benzyl)methane sulfonamide] | 90 |
| Cc1cc2ncnc(NC3CC3)c2cc1-c1cccc(CN(C(=O)c2cccs2)C2CC2)c1 [Example 698, N-cyclopropyl-N-(3-(4-(cyclopropylamino)-7-methylquinazolin-6-yl)benzyl)thiophene-2-carboxamide] | 89 |
| Cc1cc2ncnc(NC3CC3)c2cc1-c1cccc(CN(C(=O)c2ccccn2)C2CC2)c1 [Example 699, N-cyclopropyl-N-(3-(4-(cyclopropylamino)-7-methylquinazolin-6-yl)benzyl)picolinamide] | 90 |
| COc1ccc(C(=O)N(Cc2cccc(-c3cc(F)c4ncnc(NC5CC5)c4c3)c2)C2CC2)cc1OC [Example 700, N-cyclopropyl-N-(3-(4-(cyclopropylamino)-8-fluoroquinazolin-6-yl)benzyl)-3,4-dimethoxybenzamide] | 81 |
| O=S(=O)(c1cccs1)N(Cc1cccc(-c2cc(F)c3ncnc(NC4CC4)c3c2)c1)C1CC1 [Example 701, N-cyclopropyl-N-(3-(4-(cyclopropylamino)-8-fluoroquinazolin-6-yl)benzyl)thiophene-2-sulfonamide] | 93 |
| Cc1cc2ncnc(NC3CC3)c2cc1-c1cccc(CN(C(=O)c2cccnc2)C2CC2)c1 [Example 702, N-cyclopropyl-N-(3-(4-(cyclopropylamino)-7-methylquinazolin-6-yl)benzyl)nicotinamide] | 86 |
| O=C(CCc1ccccc1)N(Cc1cccc(-c2cc(F)c3ncnc(NC4CC4)c3c2)c1)C1CC1 [Example 703, N-cyclopropyl-N-(3-(4-(cyclopropylamino)-8-fluoroquinazolin-6-yl)benzyl)-3-phenylpropanamide] | 87 |
| Cc1cc2ncnc(NC3CC3)c2cc1-c1cccc(CN(C2CC2)S(=O)(=O)C(C)C)c1 [Example 705, N-cyclopropyl-N-(3-(4-(cyclopropylamino)-7-methylquinazolin-6-yl)benzyl)propane-2-sulfonamide] | 86 |
| Cc1cc(C(=O)N(Cc2cccc(-c3cc4c(NC5CC5)ncnc4cc3C)c2)C2CC2)n(C)n1 [Example 706, N-cyclopropyl-N-(3-(4-(cyclopropylamino)-7-methylquinazolin-6-yl)benzyl)-1,3-dimethyl-1H-pyrazole-5-carboxamide] | 69 |
| Cc1cc2ncnc(NC3CC3)c2cc1-c1cccc(CN(C(=O)c2ccncc2)C2CC2)c1 [Example 707, N-cyclopropyl-N-(3-(4-(cyclopropylamino)-7-methylquinazolin-6-yl)benzyl)isonicotinamide] | 89 |
| O=S(=O)(c1cccc2cccnc12)N(Cc1cccc(-c2cc(F)c3ncnc(NC4CC4)c3c2)c1)C1CC1 [Example 709, N-cyclopropyl-N-(3-(4-(cyclopropylamino)-8-fluoroquinazolin-6-yl)benzyl)quinoline-8-sulfonamide] | 36 |
| Cc1cc2ncnc(NC3CC3)c2cc1-c1cccc(CN(C2CC2)S(=O)(=O)Cc2ccccc2)c1 [Example 713, N-cyclopropyl-N-(3-(4-(cyclopropylamino)-7-methylquinazolin-6-yl)benzyl)-1-phenylmethane sulfonamide] | 51 |
| Cc1cc2ncnc(NC3CC3)c2cc1-c1cccc(CN(C(=O)c2ccccc2)C2CC2)c1 [Example 714, N-cyclopropyl-N-(3-(4-(cyclopropylamino)-7-methylquinazolin-6-yl)benzyl)benzamide] | 95 |
| CCCCC(=O)N(Cc1cccc(-c2cc3c(NC4CC4)ncnc3cc2C)c1)C1CC1 [Example 715, N-cyclopropyl-N-(3-(4-(cyclopropylamino)-7-methylquinazolin-6-yl)benzyl)pentanamide] | 90 |
| CNc1ncnc2ccc(-c3ccc(F)c(CN(C)C(=O)CN(C)C)c3)cc12 [Example 718, 2-(dimethylamino)-N-(2-fluoro-5-(4-(methylamino)quinazolin-6-yl)benzyl)-N-methylacetamide] | 40 |
| Cc1cc2ncnc(NC3CC3)c2cc1-c1cccc(CN(C(=O)C(C)(C)C)C2CC2)c1 [Example 719, N-cyclopropyl-N-(3-(4-(cyclopropylamino)-7-methylquinazolin-6-yl)benzyl)pivalamide] | 84 |
| COc1ccc(C(=O)N(Cc2cccc(-c3cc4c(NC5CC5)ncnc4cc3C)c2)C2CC2)cc1OC [Example 722, N-cyclopropyl-N-(3-(4-(cyclopropylamino)-7-methylquinazolin-6-yl)benzyl)-3,4-dimethoxybenzamide] | 72 |
| Cc1cc2ncnc(NC3CC3)c2cc1-c1cccc(CN(C(=O)CN(C)C)C2CC2)c1 [Example 723, N-cyclopropyl-N-(3-(4-(cyclopropylamino)-7-methylquinazolin-6-yl)benzyl)-2-(dimethylamino)acetamide] | 43 |
| CC(C)(C)C(=O)N(Cc1cccc(-c2cc(F)c3ncnc(NC4CC4)c3c2)c1)C1CC1 [Example 724, N-cyclopropyl-N-(3-(4-(cyclopropylamino)-8-fluoroquinazolin-6-yl)benzyl)pivalamide] | 86 |
| Cc1cccc(CNc2ncnc3ccc(-c4cccc(CN(C(=O)CN(C)C)C5CC5)c4)cc23)c1 [Example 726, N-cyclopropyl-2-(dimethylamino)-N-(3-(4-(3-methylbenzylamino)quinazolin-6-yl)benzyl)acetamide] | 65 |
| O=C(c1cccc(F)c1)N(Cc1cccc(-c2cc(F)c3ncnc(NC4CC4)c3c2)c1)C1CC1 [Example 727, N-cyclopropyl-N-(3-(4-(cyclopropylamino)-8-fluoroquinazolin-6-yl)benzyl)-3-fluorobenzamide] | 93 |
| O=C(c1cccc(C(F)(F)F)c1)N(Cc1cccc(-c2cc(F)c3ncnc(NC4CC4)c3c2)c1)C1CC1 [Example 728, N-cyclopropyl-N-(3-(4-(cyclopropylamino)-8-fluoroquinazolin-6-yl)benzyl)-3-(trifluoromethyl)benzamide] | 63 |
| COc1ccc(CNc2ncnc3ccc(-c4cccc(CN(C(=O)c5cc(C)nn5C)C5CC5)c4)cc23)c(OC)c1 [Example 730, N-cyclopropyl-N-(3-(4-(2,4-dimethoxybenzylamino)quinazolin-6-yl)benzyl)-1,3-dimethyl-1H-pyrazole-5-carboxamide] | 35 |
| O=C(c1cccc(C(F)(F)F)c1)N(Cc1cc(-c2ccc3ncnc(NC4CC4)c3c2)ccc1Cl)C1CC1 [Example 732, N-(2-chloro-5-(4-(cyclopropylamino)quinazolin-6-yl)benzyl)-N-cyclopropyl-3-(trifluoromethyl)benzamide] | 63 |
| CN(C)CC(=O)N(Cc1cc(-c2ccc3ncnc(NC4CC4)c3c2)ccc1Cl)C1CC1 [Example 733, N-(2-chloro-5-(4-(cyclopropylamino)quinazolin-6-yl)benzyl)-N-cyclopropyl-2-(dimethylamino)acetamide] | 39 |
